Calls of active or inactive are those of the source. The rule behind the calls is not given here. Bounds are passed on as bounds.

For data set [1], the system named is Trypanosoma cruzi. In words: Antitrypanosomal activity against Trypanosoma cruzi MHOM/Pe/2011/Arequipa DTU 5 trypomastigotes infected in Balb/c mouse assessed as reduction in parasitaemia level at 20 mg/kg, po once daily for 5 consecutive days starting from day 10 post infection measured on day 40 post infection by Neubauer chamber method. The format is functional, organism-based.

A short description of data set [2]: Hepatotoxicity in Balb/c mouse infected with Trypanosoma cruzi MHOM/Pe/2011/Arequipa DTU 5 trypomastigotes assessed as increase in alkaline phosphatase level at 20 mg/kg, po once daily for 5 consecutive days starting from day 75 post infection measured on day 81 post infection relative to control. It is filed as toxicity, organism-based. Particulars: in vivo.

Data set [3] can be described thus: Hepatotoxicity in Balb/c mouse infected with Trypanosoma cruzi MHOM/Pe/2011/Arequipa DTU 5 trypomastigotes assessed as increase in alkaline phosphatase level at 20 mg/kg, po once daily for 5 consecutive days starting from day 10 post infection measured on day 16 post infection relative to control. To be noted: in vivo. The format is toxicity, organism-based.
Data set [4] in a line: Hepatotoxicity in Balb/c mouse infected with Trypanosoma cruzi MHOM/Pe/2011/Arequipa DTU 5 trypomastigotes assessed as increase in ratio of serum AST to GOT level at 20 mg/kg, po once daily for 5 consecutive days starting from day 10 post infection measured on day 127 post infection by biochemical analysis relative to control. The format is toxicity, organism-based. Particulars: in vivo.

The subject of data set [5] is Trypanosoma cruzi. Put plainly: Antitrypanosomal activity against Trypanosoma cruzi MHOM/Pe/2011/Arequipa DTU 5 trypomastigotes infected in Balb/c mouse assessed as reduction in parasitaemia level at 20 mg/kg, po once daily for 5 consecutive days starting from day 10 post infection measured on day 23 post infection by Neubauer chamber method relative to control. On the set-up: scale not given: the % may be the effect or the level left. The format is functional.

The nature of data set [6]: Nephrotoxicity in Balb/c mouse infected with Trypanosoma cruzi MHOM/Pe/2011/Arequipa DTU 5 trypomastigotes assessed as decrease in serum uric acid level at 20 mg/kg, po once daily for 5 consecutive days starting from day 75 post infection measured on day 127 post infection relative to control. It is filed as toxicity, organism-based. To be noted: in vivo.
In data set [7] the target is Superoxide dismutase [Cu-Zn] (Homo sapiens, UniProt P00441). Put plainly: Inhibition of human erythrocyte CuZn-SOD by UV-Visible spectrophotometric method.
Superoxide dismutase [Cu-Zn], sequence (P00441 whole entry): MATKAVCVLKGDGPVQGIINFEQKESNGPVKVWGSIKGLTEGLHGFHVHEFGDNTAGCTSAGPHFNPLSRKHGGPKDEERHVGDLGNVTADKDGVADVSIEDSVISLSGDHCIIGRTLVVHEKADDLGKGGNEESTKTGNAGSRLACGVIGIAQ
Data set [8] has as its system Trypanosoma cruzi. Put plainly: Antitrypanosomal activity against Trypanosoma cruzi MHOM/Pe/2011/Arequipa DTU 5 trypomastigotes infected in Balb/c mouse assessed as reduction in parasitaemia level at 20 mg/kg, po once daily for 5 consecutive days starting from day 10 post infection measured every 2 to 3 days up to day 50 post infection starting from day 7 post infection by Neubauer chamber method. It is filed as functional, organism-based.

In data set [9] the test system is Trypanosoma cruzi. In words: Trypanocidal activity against Trypanosoma cruzi MHOM/Pe/2011/Arequipa DTU 5 amastigotes infected in African green monkey Vero cells after 72 hrs by Giemsa-staining based microscopic assay. To be noted: MHOM/Pe/2011/Arequipa DTU 5, Vero. It is filed as functional, organism-based.
The subject of data set [10] is Trypanosoma cruzi. Put plainly: Trypanocidal activity against Trypanosoma cruzi TINF/CH/1956/Tulahuen DTU 6 trypomastigotes derived from infected Balb/c mouse after 72 hrs by resazurin dye based assay. It is filed as functional, organism-based. Particulars: TINF/CH/1956/Tulahuen DTU 6, 72 h. (Alamar Blue is a resazurin reagent that responds to reducing activity.)
Data set [11] relates to Trypanosoma cruzi. In words: Trypanocidal activity against Trypanosoma cruzi IRHOD/CO/2008/SN3 DTU 1 epimastigotes after 72 hrs by resazurin dye based assay. It is filed as functional, organism-based. Particulars: IRHOD/CO/2008/SN3 DTU 1, 72 h.
A short description of data set [12]: Selectivity index, ratio of IC50 for African green monkey Vero cells to IC50 for Trypanosoma cruzi TINF/CH/1956/Tulahuen DTU 6 amastigotes infected in African green monkey Vero cells. The format is toxicity. Particulars: read-out: Ratio IC50.
Data set [13] deals with Trypanosoma cruzi. In words: Trypanocidal activity against Trypanosoma cruzi MHOM/Pe/2011/Arequipa DTU 5 amastigotes infected in African green monkey Vero cells assessed as reduction in infected cells after 72 hrs by Giemsa-staining based assay. The format is functional, organism-based. Particulars: MHOM/Pe/2011/Arequipa DTU 5, Vero.
Data set [14] is described as follows: Hepatotoxicity in Balb/c mouse infected with Trypanosoma cruzi MHOM/Pe/2011/Arequipa DTU 5 trypomastigotes assessed as change in total bilirubin level at 20 mg/kg, po once daily for 5 consecutive days starting from day 10 post infection measured on day 127 post infection by biochemical analysis (reference value: 0.21 mg/dl). It is filed as toxicity, organism-based. To be noted: in vivo.

Data set [15] deals with Trypanosoma cruzi. Put plainly: Trypanocidal activity against Trypanosoma cruzi MHOM/Pe/2011/Arequipa DTU 5 trypomastigotes derived from infected Balb/c mouse after 72 hrs by resazurin dye based assay. The format is functional, organism-based. Particulars: MHOM/Pe/2011/Arequipa DTU 5, 72 h.
A short description of data set [16]: Selectivity index, ratio of IC50 for African green monkey Vero cells to IC50 for Trypanosoma cruzi TINF/CH/1956/Tulahuen DTU 6 trypomastigotes derived from infected Balb/c mouse. It is filed as toxicity. Particulars: read-out: Ratio IC50.
The subject of data set [17] is Trypanosoma cruzi. In words: Trypanocidal activity against Trypanosoma cruzi TINF/CH/1956/Tulahuen DTU 6 epimastigotes after 72 hrs by resazurin dye based assay. Particulars: TINF/CH/1956/Tulahuen DTU 6, 72 h. The format is functional, organism-based.
Data set [18] concerns Trypanosoma cruzi. Put plainly: Antitrypanosomal activity against Trypanosoma cruzi MHOM/Pe/2011/Arequipa DTU 5 epimastigotes assessed as effect on parasite glycolytic pathway by measuring increase in glycerol excretion at IC25 after 72 hrs by 1H NMR method. The format is functional.
Data set [19] is described as follows: Selectivity index, ratio of IC50 for African green monkey Vero cells to IC50 for Trypanosoma cruzi MHOM/Pe/2011/Arequipa DTU 5 epimastigotes. Particulars: read-out: Ratio IC50. The format is toxicity.
Data set [20] relates to Trypanosoma cruzi. Put plainly: Trypanocidal activity against Trypanosoma cruzi TINF/CH/1956/Tulahuen DTU 6 amastigotes infected in African green monkey Vero cells after 72 hrs by Giemsa-staining based microscopic assay. It is filed as functional, organism-based. To be noted: TINF/CH/1956/Tulahuen DTU 6, Vero.
In data set [21] the test system is Trypanosoma cruzi. Put plainly: Antitrypanosomal activity against Trypanosoma cruzi MHOM/Pe/2011/Arequipa DTU 5 epimastigotes assessed as effect on parasite glycolytic pathway by measuring increase in succinate excretion at IC25 after 72 hrs by 1H NMR method. It is filed as functional, organism-based.
Data set [22] is described as follows: Selectivity index, ratio of IC50 for African green monkey Vero cells to IC50 for Trypanosoma cruzi MHOM/Pe/2011/Arequipa DTU 5 amastigotes infected in African green monkey Vero cells. The format is toxicity. To be noted: read-out: Ratio IC50.
Data set [23] in a line: Selectivity index, ratio of IC50 for African green monkey Vero cells to IC50 for Trypanosoma cruzi MHOM/Pe/2011/Arequipa DTU 5 trypomastigotes derived from infected Balb/c mouse. The format is toxicity. Particulars: read-out: Ratio IC50.
The nature of data set [24]: Inhibition of Trypanosoma cruzi MHOM/Pe/2011/Arequipa DTU 5 epimastigotes Fe-SOD by UV-Visible spectrophotometric method.
Data set [25] in a line: Selectivity index, ratio of IC50 for African green monkey Vero cells to IC50 for Trypanosoma cruzi IRHOD/CO/2008/SN3 DTU 1 trypomastigotes derived from infected Balb/c mouse. The format is toxicity. Particulars: read-out: Ratio IC50.
In the next data set the test system is Vero. Put plainly: Cytotoxicity against African green monkey Vero cells assessed as reduction in cell viability after 72 hrs by resazurin dye based assay. Particulars: Chlorocebus sabaeus.
Data set [26] concerns Trypanosoma cruzi. Put plainly: Trypanocidal activity against Trypanosoma cruzi IRHOD/CO/2008/SN3 DTU 1 amastigotes infected in African green monkey Vero cells after 72 hrs by Giemsa-staining based microscopic assay. The format is functional, organism-based. Particulars: IRHOD/CO/2008/SN3 DTU 1, Vero.
Data set [27] is described as follows: Selectivity index, ratio of IC50 for African green monkey Vero cells to IC50 for Trypanosoma cruzi IRHOD/CO/2008/SN3 DTU 1 amastigotes infected in African green monkey Vero cells. The format is toxicity. Particulars: read-out: Ratio IC50.
Data set [28] in a line: Selectivity index, ratio of IC50 for African green monkey Vero cells to IC50 for Trypanosoma cruzi IRHOD/CO/2008/SN3 DTU 1 epimastigotes. It is filed as toxicity. Particulars: read-out: Ratio IC50.
The nature of data set [29]: Selectivity index, ratio of IC50 for African green monkey Vero cells to IC50 for Trypanosoma cruzi TINF/CH/1956/Tulahuen DTU 6 epimastigotes. To be noted: read-out: Ratio IC50. It is filed as toxicity.

As to `O=C(Cn1ccnc1[N+](=O)[O-])NCc1ccccc1` [BENZNIDAZOLE], in the data set on Trypanosoma cruzi [1], the result was Active. The Activity in [2] was greater than 40 U/L; in [3], 20 to 30 U/L; in [4], greater than 40 U/L; in the data set with Trypanosoma cruzi [5], 70%; in data set [6], 10 to 20 mg/dL.
On to `CCCCCCNc1c(N(C)CCCN(C)C)c(=O)c1=O`, for which the Activity in [3] is 10 to 20 U/L; in [4] it was 20 to 30 U/L; in data set [14], 0.21 mg/dL; in data set [6], 10 to 20 mg/dL. The IC50 in data set [7] is greater than 100 µM; in the data set on Trypanosoma cruzi [9] it was 17.3 µM; in the data set on Trypanosoma cruzi [10] it was 17.2 µM; in the data set on Trypanosoma cruzi [11], 14.3 µM; in the data set on Trypanosoma cruzi [13] it was 60.5 µM; in the data set with Trypanosoma cruzi [15], 6.5 µM. Moreover, the IC50 was found to be 14.7 µM in the data set on Trypanosoma cruzi [17]; 38.3 µM in the data set with Trypanosoma cruzi [20]; 25.3 µM in data set [24]; 900 µM in the data set with Vero; 50 µM in the data set with Trypanosoma cruzi [26]. Also, the result in the data set with Trypanosoma cruzi [8] was inactive. The selectivity ratio in [12] turned out to be 23.5; in data set [16] it was 52.2; in data set [19], 44.3; in data set [22], 52.1; in data set [23], 139; in data set [25] it was 57. The selectivity ratio in [27] was 18; in data set [28], 63; in data set [29], 61.3. In addition, the outcome with Trypanosoma cruzi [18] and in the data set on Trypanosoma cruzi [21] was Active.
With `CCCCCCCCCCCCCCCCNc1c(N(C)CCCN(C)C)c(=O)c1=O`, the result in the data set with Trypanosoma cruzi [1], in the data set on Trypanosoma cruzi [8] and in the data set on Trypanosoma cruzi [21] was Active. The Activity in data set [2] is 10 to 20 U/L; in the data set with Trypanosoma cruzi [5], 80%; in data set [14] it was 0.21 mg/dL; with Trypanosoma cruzi [18] it was 43%. The IC50 in data set [7] was greater than 100 µM; with Trypanosoma cruzi [9], 0.2 µM; in the data set on Trypanosoma cruzi [10] it was 4.7 µM; with Trypanosoma cruzi [11], 16 µM; in the data set on Trypanosoma cruzi [13], 5.6 µM; with Trypanosoma cruzi [15], 4.4 µM. The 50% inhibitory concentration (IC50) was 9.5 µM in the data set on Trypanosoma cruzi [17]; 6.4 µM with Trypanosoma cruzi [20]; 69.8 µM in data set [24]; 679 µM in the data set on Vero; 18.9 µM in the data set on Trypanosoma cruzi [26]. In addition, the selectivity ratio came out at 106 in data set [12]; 144 in data set [16]; 93.1 in data set [19]; 3090 in [22]; 154 in [23]; 126 in data set [25]. The results for the selectivity ratio in data set [27], in [28] and in [29] were 35.9, 42.5 and 71.1, respectively.

As a reminder, the IC50 is the concentration that inhibits the measured activity by half.

The values above are taken from ChEMBL document CHEMBL4411344, “Synthesis and biological evaluation of new long-chain squaramides as anti-chagasic agents in the BALB/c mouse model” (Bioorg Med Chem, 2019).
